Source: PMC12679645, “Diversifying the triquinazine scaffold of a Janus kinase inhibitor” (RSC Medicinal Chemistry, 2025)
Read-outs that look alike come from different tables or passages of the source.

Assays:
JAK1 [1] = molecular target: T1, JAK1 (Homo sapiens, UniProt P23458); test: biochemical enzymatic kinase assay, % inhibition at […]
JAK2 [2] = molecular target: T2, JAK2 (Homo sapiens, UniProt O60674); test: biochemical; parameters: Eurofins Cerep biochemical enzymatic kinase assay, per cent inhibition at a single concentration, duplicate
T2 sequence (O60674 whole entry): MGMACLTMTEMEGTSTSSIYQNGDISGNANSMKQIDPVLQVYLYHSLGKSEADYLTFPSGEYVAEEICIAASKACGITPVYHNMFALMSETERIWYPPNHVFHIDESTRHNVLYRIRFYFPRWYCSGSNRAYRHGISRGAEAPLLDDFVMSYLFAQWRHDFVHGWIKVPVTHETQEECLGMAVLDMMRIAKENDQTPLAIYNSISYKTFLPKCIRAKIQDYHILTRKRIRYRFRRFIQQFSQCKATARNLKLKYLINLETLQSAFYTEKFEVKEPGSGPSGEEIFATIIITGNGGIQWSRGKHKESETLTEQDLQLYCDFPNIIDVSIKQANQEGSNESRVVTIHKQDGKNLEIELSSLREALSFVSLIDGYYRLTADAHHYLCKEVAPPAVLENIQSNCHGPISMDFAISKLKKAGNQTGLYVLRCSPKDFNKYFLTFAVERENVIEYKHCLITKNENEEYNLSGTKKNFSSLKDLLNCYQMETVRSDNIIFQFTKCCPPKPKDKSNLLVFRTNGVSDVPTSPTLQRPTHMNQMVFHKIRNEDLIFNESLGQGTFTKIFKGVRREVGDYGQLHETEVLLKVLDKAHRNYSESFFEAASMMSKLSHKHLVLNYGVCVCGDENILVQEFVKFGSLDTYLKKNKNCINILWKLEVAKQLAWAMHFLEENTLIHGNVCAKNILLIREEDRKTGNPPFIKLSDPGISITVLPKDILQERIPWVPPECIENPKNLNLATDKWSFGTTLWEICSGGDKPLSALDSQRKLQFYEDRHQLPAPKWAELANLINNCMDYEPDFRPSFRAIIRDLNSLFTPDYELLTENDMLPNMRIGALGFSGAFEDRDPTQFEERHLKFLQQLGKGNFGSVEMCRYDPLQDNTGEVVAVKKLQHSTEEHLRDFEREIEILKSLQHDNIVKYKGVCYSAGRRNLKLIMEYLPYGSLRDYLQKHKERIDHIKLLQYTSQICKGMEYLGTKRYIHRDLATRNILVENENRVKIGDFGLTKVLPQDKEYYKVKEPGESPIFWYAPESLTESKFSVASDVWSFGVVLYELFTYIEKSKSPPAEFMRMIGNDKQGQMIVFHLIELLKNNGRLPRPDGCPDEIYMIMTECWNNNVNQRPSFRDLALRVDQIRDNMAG
Excerpt: (§1) Spiro diamines containing a deazapurine ring are known JAK inhibitors.[35]

TYK2 [3] = molecular target: T3, TYK2 (Homo sapiens, UniProt P29597); test: biochemical; parameters: Eurofins Cerep biochemical enzymatic kinase assay, per cent inhibition at a single concentration, duplicate
T3 sequence (P29597 whole entry): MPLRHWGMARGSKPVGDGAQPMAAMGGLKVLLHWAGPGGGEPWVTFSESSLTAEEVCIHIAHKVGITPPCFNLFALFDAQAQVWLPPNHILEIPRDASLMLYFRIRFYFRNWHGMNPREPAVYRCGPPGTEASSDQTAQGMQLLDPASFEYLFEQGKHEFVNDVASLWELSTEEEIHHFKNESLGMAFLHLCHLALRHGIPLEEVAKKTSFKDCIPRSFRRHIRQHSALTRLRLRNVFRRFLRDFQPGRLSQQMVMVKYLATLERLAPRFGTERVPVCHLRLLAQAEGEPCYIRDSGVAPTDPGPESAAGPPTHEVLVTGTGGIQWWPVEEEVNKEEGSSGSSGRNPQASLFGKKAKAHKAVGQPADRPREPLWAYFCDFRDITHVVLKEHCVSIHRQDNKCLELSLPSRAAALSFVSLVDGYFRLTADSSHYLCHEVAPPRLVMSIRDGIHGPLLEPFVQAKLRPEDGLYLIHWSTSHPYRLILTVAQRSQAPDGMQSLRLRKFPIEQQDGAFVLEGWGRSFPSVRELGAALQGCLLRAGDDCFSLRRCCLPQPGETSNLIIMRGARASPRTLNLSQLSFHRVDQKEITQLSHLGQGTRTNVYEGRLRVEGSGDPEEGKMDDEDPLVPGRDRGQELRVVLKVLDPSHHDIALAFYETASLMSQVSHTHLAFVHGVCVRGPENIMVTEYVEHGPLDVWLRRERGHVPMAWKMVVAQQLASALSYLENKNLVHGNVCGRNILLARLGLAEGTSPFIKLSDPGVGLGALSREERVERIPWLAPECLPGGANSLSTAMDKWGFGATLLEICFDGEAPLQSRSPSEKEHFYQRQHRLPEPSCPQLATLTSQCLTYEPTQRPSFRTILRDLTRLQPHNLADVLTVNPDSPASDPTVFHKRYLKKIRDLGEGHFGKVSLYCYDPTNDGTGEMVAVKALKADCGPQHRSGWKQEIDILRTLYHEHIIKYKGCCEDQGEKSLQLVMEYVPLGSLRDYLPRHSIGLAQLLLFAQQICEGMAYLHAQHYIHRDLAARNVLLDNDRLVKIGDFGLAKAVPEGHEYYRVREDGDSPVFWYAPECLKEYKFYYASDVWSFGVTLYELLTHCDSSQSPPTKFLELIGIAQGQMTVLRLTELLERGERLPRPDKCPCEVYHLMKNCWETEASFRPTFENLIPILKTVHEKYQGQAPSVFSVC
Excerpt: as §1

JAK3 [4] = molecular target: T4, JAK3 (Homo sapiens, UniProt P52333); test: biochemical; parameters: Eurofins Cerep biochemical enzymatic kinase assay, per cent inhibition at a single concentration, duplicate; details: read-out: % of inhibition ^a / JAK3
T4 sequence (P52333 1-1124): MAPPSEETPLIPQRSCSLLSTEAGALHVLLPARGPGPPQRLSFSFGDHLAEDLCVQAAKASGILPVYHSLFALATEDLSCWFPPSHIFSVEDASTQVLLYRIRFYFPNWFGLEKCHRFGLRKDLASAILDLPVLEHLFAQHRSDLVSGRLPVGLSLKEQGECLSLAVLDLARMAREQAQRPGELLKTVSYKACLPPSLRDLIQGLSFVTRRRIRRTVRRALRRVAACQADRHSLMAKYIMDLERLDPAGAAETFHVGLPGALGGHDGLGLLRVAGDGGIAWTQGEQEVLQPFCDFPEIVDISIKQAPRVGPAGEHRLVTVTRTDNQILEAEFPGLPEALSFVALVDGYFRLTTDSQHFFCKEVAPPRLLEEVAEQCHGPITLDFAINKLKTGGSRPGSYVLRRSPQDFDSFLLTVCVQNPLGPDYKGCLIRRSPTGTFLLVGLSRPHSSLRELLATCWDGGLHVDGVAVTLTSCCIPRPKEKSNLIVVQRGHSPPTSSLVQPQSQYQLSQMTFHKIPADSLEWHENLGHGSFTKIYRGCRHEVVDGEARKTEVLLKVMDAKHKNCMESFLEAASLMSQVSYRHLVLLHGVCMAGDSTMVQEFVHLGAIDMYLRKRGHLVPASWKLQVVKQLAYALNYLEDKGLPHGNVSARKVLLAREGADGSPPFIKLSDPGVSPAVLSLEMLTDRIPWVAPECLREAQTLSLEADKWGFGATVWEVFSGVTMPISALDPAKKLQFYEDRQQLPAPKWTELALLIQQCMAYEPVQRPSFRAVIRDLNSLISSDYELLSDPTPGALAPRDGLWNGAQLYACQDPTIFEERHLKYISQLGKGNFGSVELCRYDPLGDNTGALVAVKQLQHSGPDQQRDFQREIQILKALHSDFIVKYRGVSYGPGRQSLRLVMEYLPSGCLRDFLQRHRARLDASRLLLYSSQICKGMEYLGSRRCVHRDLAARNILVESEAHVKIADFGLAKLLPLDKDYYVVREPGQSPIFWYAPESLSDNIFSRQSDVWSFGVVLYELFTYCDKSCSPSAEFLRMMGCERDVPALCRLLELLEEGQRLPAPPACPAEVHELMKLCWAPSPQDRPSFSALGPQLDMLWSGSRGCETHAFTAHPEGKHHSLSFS

JAK1 [5] = molecular target: T1, JAK1; test: biochemical enzymatic kinase assay, % inhibition at […]; remark: listed apart in the source
JAK1 [6] = molecular target: T1, JAK1; test: biochemical; parameters: radiometric filter-binding kinase inhibition assay (Eurofins Cerep), scintillation counting
Procedure: (§2) Given the structural similarities between the expanded ring analogues 16a and 16b and the previously described inhibitor KMC420, we initially evaluated their activity at 0.1 μM against JAK1, JAK2, JAK3, and TYK2, using biochemical enzymatic assays provided by Eurofins Cerep SA.

JAK2 [7] = molecular target: T2, JAK2; test: biochemical; parameters: radiometric filter-binding kinase inhibition assay (Eurofins Cerep), scintillation counting
Procedure: as §2

JAK3 [8] = molecular target: T4, JAK3; test: biochemical; parameters: radiometric filter-binding kinase inhibition assay (Eurofins Cerep), scintillation counting
Procedure: as §2

TYK2 [9] = molecular target: T3, TYK2; test: biochemical; parameters: radiometric filter-binding kinase inhibition assay (Eurofins Cerep), scintillation counting
Procedure: as §2

TYK2 [10] = molecular target: T3, TYK2; test: biochemical enzymatic kinase assay, % inhibition at […]
JAK3 [11] = molecular target: T4, JAK3; test: as above
JAK1 [12] = molecular target: T1, JAK1; test: biochemical; parameters: Eurofins Cerep biochemical enzymatic kinase assay, per cent inhibition at a single concentration, duplicate
Procedure: Given the structural similarities between the expanded ring analogues 16a and 16b and the previously described inhibitor KMC420, we initially evaluated their activity at 0.1 μM against JAK1, JAK2, JAK3, and TYK2, using biochemical enzymatic assays provided by Eurofins Cerep SA. […] Spiro diamines containing a deazapurine ring are known JAK inhibitors.[35] […] However, this compound was not tested against the other JAK enzymes. Due to its similarity to our potent compound 40a, we decided to investigate its inhibitory activity against the four enzymes at a concentration of 0.1 μM. […] To investigate the binding differences between 40a and (R)-KMC420, we performed docking studies with DOCK6 using the JAK1 co-crystal structure with tofacitinib (PDB 3EYG) as receptor.

T1 sequence (P23458 whole entry): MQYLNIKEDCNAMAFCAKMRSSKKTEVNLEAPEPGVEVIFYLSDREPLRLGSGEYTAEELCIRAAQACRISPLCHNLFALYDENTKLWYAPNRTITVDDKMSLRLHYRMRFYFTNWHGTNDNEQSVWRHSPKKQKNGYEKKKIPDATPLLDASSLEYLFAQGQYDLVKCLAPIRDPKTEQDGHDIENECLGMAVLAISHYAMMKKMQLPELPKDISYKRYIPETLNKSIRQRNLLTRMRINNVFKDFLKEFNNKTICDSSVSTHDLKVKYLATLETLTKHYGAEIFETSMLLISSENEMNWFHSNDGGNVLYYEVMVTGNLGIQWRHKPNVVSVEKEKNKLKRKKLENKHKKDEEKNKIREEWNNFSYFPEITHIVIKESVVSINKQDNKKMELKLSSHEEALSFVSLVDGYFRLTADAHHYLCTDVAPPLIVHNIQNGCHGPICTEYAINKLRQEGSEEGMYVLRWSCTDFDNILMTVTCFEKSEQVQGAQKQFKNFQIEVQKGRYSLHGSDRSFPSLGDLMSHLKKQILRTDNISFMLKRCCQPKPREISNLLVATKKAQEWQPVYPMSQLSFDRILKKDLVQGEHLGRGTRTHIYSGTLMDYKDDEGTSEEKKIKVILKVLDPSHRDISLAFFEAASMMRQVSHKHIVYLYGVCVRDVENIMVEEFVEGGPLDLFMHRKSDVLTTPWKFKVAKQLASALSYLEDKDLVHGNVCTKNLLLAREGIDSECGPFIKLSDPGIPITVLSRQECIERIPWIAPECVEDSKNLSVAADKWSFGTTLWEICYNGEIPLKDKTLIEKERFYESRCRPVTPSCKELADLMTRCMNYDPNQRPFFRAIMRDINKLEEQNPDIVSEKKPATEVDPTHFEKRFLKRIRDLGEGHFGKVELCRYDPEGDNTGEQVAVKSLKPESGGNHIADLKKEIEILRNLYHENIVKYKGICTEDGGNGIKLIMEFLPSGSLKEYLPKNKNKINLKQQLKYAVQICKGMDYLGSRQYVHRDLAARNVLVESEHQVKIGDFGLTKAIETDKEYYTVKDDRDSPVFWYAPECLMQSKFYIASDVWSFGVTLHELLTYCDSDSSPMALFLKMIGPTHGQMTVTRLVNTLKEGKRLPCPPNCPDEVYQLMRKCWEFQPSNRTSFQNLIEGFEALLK

SMILES: C[C@]12CCN(c3ncnc4[nH]ccc34)[C@H]1CC[C@H]2NC#N (racemic) [34c]
- inhibition at 1 µM (JAK1 [1]): 89 ± 2%
- inhibition at 1 µM (JAK2 [2]): 45 ± 8%
- inhibition at 1 µM (TYK2 [3]): 53 ± 5%
- inhibition at 1 µM (JAK3 [4]): 43 ± 3%

SMILES: CCS(=O)(=O)N[C@@H]1CC[C@@H]2N(c3ncnc4[nH]ccc34)CC[C@@]21C (racemic) [34d]
- inhibition at 1 µM (JAK1 [1]): 88 ± 1%
- inhibition at 1 µM (JAK2 [2]): 61 ± 1%
- inhibition at 1 µM (TYK2 [3]): 56 ± 1%
- inhibition at 1 µM (JAK3 [4]): 45 ± 6%

SMILES: C=CC(=O)N[C@H]1CC[C@@H]2N(c3ncnc4[nH]ccc34)CC[C@]12C (racemic) [40b]
- inhibition at 0.1 µM (JAK1 [5]): 59 ± 2%
- inhibition at 0.1 µM (JAK2 [2]): 8 ± 1%
- inhibition at 0.1 µM (TYK2 [3]): 16 ± 2%
- inhibition at 0.1 µM (JAK3 [4]): 4 ± 1%
- inhibition at 1 µM (JAK1 [6]): 93%
- inhibition at 10 µM (JAK1 [6]): 100%
- inhibition at 1 µM (JAK2 [7]): 52%
- inhibition at 10 µM (JAK2 [7]): 96%
- inhibition at 1 µM (JAK3 [8]): 55%
- inhibition at 10 µM (JAK3 [8]): 99%
- inhibition at 1 µM (TYK2 [9]): 70%
- inhibition at 10 µM (TYK2 [9]): 100%

SMILES: C[C@]12CCN(c3ncnc4[nH]ccc34)[C@H]1CC[C@@H]2NC#N (racemic) [40c]
- inhibition at 0.1 µM (JAK1 [5]): 70 ± 2%
- inhibition at 0.1 µM (TYK2 [10]): 61%
- inhibition at 0.1 µM (JAK3 [11]): 58 ± 1%
- inhibition at 0.1 µM (JAK2 [2]): 18 ± 6%
- inhibition at 1 µM (JAK1 [6]): 95%
- inhibition at 10 µM (JAK1 [6]): 100%
- inhibition at 1 µM (JAK2 [7]): 58%
- inhibition at 10 µM (JAK2 [7]): 85%
- inhibition at 1 µM (JAK3 [8]): 96%
- inhibition at 10 µM (JAK3 [8]): 79%
- inhibition at 1 µM (TYK2 [9]): 92%
- inhibition at 10 µM (TYK2 [9]): 91%

SMILES: N#CN1CCC2(CCN(c3ncnc4[nH]ccc34)C2)C1 (racemic) [43c]
- inhibition at 1 µM (JAK1 [1]): 93 ± 1%
- inhibition at 1 µM (JAK2 [2]): 59 ± 4%
- inhibition at 1 µM (TYK2 [3]): 63 ± 2%
- inhibition at 1 µM (JAK3 [4]): 26 ± 1%

SMILES: CC12CCN(c3ncnc4[nH]ccc34)C1CCC2NC(=O)CC#N (centres unmarked) [34a]
- inhibition at 1 µM (JAK1 [12]): 85 ± 1%
- inhibition at 1 µM (JAK2 [2]): 41 ± 5%
- inhibition at 1 µM (TYK2 [3]): 41 ± 6%
- inhibition at 1 µM (JAK3 [4]): 43 ± 5%

SMILES: C=CC(=O)NC1CCC2N(c3ncnc4[nH]ccc34)CCC12C (centres unmarked) [34b]
- inhibition at 1 µM (JAK1 [12]): 73 ± 1%
- inhibition at 1 µM (JAK2 [2]): 27 ± 3%
- inhibition at 1 µM (TYK2 [3]): 23 ± 5%
- inhibition at 1 µM (JAK3 [4]): 38 ± 1%

SMILES: CC12CCN(C(=O)CC#N)C1CCC2Nc1ncnc2[nH]ccc12 (centres unmarked) [36a]
- inhibition at 10 µM (JAK1 [12]): 94%
- inhibition at 10 µM (JAK2 [2]): 60%
- inhibition at 10 µM (TYK2 [3]): 75 ± 2%
